The values that follow come from PubChem BioAssay AID1259407 (Chemical Carcinogenesis Research Information System (CCRIS), 2018).

Molecules are shown by their SMILES. Active and inactive are the calls of the source. How the calls were made is not given here.

For the data set, the system named is CCRIS mutagenicity, Ames/micronucleus/aberration tests. In words: CCRIS mutagenicity studies.
[1] abbreviates: Test System: AMES SALMONELLA TYPHIMURIUM, Strain/Indicator: TA98, Metabolic Activation: NONE, Method: PREINCUBATION
Setting [2] is: Test System: AMES SALMONELLA TYPHIMURIUM, Strain/Indicator: TA100, Metabolic Activation: NONE, Method: PREINCUBATION
Where [3] appears, read: Test System: AMES SALMONELLA TYPHIMURIUM, Strain/Indicator: TA1535, Metabolic Activation: NONE, Method: PREINCUBATION
Where [4] appears, read: Test System: AMES SALMONELLA TYPHIMURIUM, Strain/Indicator: TA98, Metabolic Activation: NONE, Method: STANDARD PLATE.

Take `Cc1cc(=O)oc2cc(O)ccc12`: the mutagenic call is, setting by setting: (Test System: AMES SALMONELLA TYPHIMURIUM, Strain/Indicator: TA98, Metabolic Activation: HAMSTER, LIVER, S-9, AROCLOR 1254, Method: PREINCUBATION) “inactive; negative”; under setting [1], “inactive; negative”; (Test System: AMES SALMONELLA TYPHIMURIUM, Strain/Indicator: TA98, Metabolic Activation: RAT, LIVER, S-9, AROCLOR 1254, Method: PREINCUBATION) “inactive; negative”; (Test System: AMES SALMONELLA TYPHIMURIUM, Strain/Indicator: TA100, Metabolic Activation: HAMSTER, LIVER, S-9, AROCLOR 1254, Method: PREINCUBATION) “inactive; negative”; under setting [2], “inactive; negative”; (Test System: AMES SALMONELLA TYPHIMURIUM, Strain/Indicator: TA100, Metabolic Activation: RAT, LIVER, S-9, AROCLOR 1254, Method: PREINCUBATION) “inactive; negative”. Moreover, the mutagenic call runs as follows: (Test System: AMES SALMONELLA TYPHIMURIUM, Strain/Indicator: TA1535, Metabolic Activation: HAMSTER, LIVER, S-9, AROCLOR 1254, Method: PREINCUBATION) “inactive; negative”; under setting [3], “inactive; negative”; (Test System: AMES SALMONELLA TYPHIMURIUM, Strain/Indicator: TA1535, Metabolic Activation: RAT, LIVER, S-9, AROCLOR 1254, Method: PREINCUBATION) “inactive; negative”; (Test System: AMES SALMONELLA TYPHIMURIUM, Strain/Indicator: TA1537, Metabolic Activation: HAMSTER, LIVER, S-9, AROCLOR 1254, Method: PREINCUBATION) “inactive; negative”; (Test System: AMES SALMONELLA TYPHIMURIUM, Strain/Indicator: TA1537, Metabolic Activation: NONE, Method: PREINCUBATION) “inactive; negative”; (Test System: AMES SALMONELLA TYPHIMURIUM, Strain/Indicator: TA1537, Metabolic Activation: RAT, LIVER, S-9, AROCLOR 1254, Method: PREINCUBATION) “inactive; negative”.
As for `O=C(Nc1ccccc1)c1cc2ccccc2c(N=Nc2cc(Cl)ccc2Cl)c1O`, the mutagenic call (Test System: AMES SALMONELLA TYPHIMURIUM, Strain/Indicator: TA98, Metabolic Activation: HAMSTER, LIVER, S-9, AROCLOR 1254 (10%), Method: PREINCUBATION) was “inactive; negative”; the mutagenic call (Test System: AMES SALMONELLA TYPHIMURIUM, Strain/Indicator: TA98, Metabolic Activation: HAMSTER, LIVER, S-9, AROCLOR 1254 (30%), Method: PREINCUBATION) is “active; positive”; the mutagenic call under setting [1] was “inactive; negative”; the mutagenic call (Test System: AMES SALMONELLA TYPHIMURIUM, Strain/Indicator: TA98, Metabolic Activation: RAT, LIVER, S-9, AROCLOR 1254 (30%), Method: PREINCUBATION) was “inactive; negative”; the mutagenic call (Test System: AMES SALMONELLA TYPHIMURIUM, Strain/Indicator: TA100, Metabolic Activation: HAMSTER, LIVER, S-9, AROCLOR 1254 (30%), Method: PREINCUBATION) is “inactive; negative”; the mutagenic call under setting [2] was “inactive; negative”. For the same molecule, the mutagenic call was “inactive; negative” (Test System: AMES SALMONELLA TYPHIMURIUM, Strain/Indicator: TA100, Metabolic Activation: RAT, LIVER, S-9, AROCLOR 1254 (30%), Method: PREINCUBATION) and “active; positive” (Test System: AMES SALMONELLA TYPHIMURIUM, Strain/Indicator: TA1538, Metabolic Activation: HAMSTER, LIVER, S-9, AROCLOR 1254 (30%), Method: PREINCUBATION).
For the molecule `CCN(CC)CCCN`, the mutagenic call is “inactive; negative” under setting [1]; “inactive; negative” (Test System: AMES SALMONELLA TYPHIMURIUM, Strain/Indicator: TA98, Metabolic Activation: RAT, LIVER, S-9, PCB, Method: PREINCUBATION); “inactive; negative” under setting [2]; “inactive; negative” (Test System: AMES SALMONELLA TYPHIMURIUM, Strain/Indicator: TA100, Metabolic Activation: RAT, LIVER, S-9, PCB, Method: PREINCUBATION).
Take `CN(C)CCCNc1c2ccccc2nc2c(F)ccc([N+](=O)[O-])c12`: the mutagenic call by setting is: under setting [4], “active; positive”; (Test System: AMES SALMONELLA TYPHIMURIUM, Strain/Indicator: TA100, Metabolic Activation: NONE, Method: STANDARD PLATE) “active; positive”.
On to `C(CCOCC1CO1)COCC1CO1` (centres undefined), for which the mutagenic call (Test System: AMES SALMONELLA TYPHIMURIUM, Strain/Indicator: TA100, Metabolic Activation: HAMSTER, LIVER, S-9, AROCLOR 1254 (10%), Method: PREINCUBATION) was “active; positive”; the mutagenic call under setting [2] was “active; positive”; the mutagenic call (Test System: AMES SALMONELLA TYPHIMURIUM, Strain/Indicator: TA100, Metabolic Activation: RAT, LIVER, S-9, AROCLOR 1254 (10%), Method: PREINCUBATION) is “active; positive”; the mutagenic call (Test System: AMES SALMONELLA TYPHIMURIUM, Strain/Indicator: TA1535, Metabolic Activation: HAMSTER, LIVER, S-9, AROCLOR 1254 (10%), Method: PREINCUBATION) is “active; positive”; the mutagenic call under setting [3] is “active; positive”; the mutagenic call (Test System: AMES SALMONELLA TYPHIMURIUM, Strain/Indicator: TA1535, Metabolic Activation: RAT, LIVER, S-9, AROCLOR 1254 (10%), Method: PREINCUBATION) was “active; positive”.
Take `C/C(C(=O)O)=C(\Cl)C(=O)O`: the mutagenic call is “inactive; negative” under setting [1]; “inactive; negative” under setting [2]; “inactive; negative” (Test System: AMES SALMONELLA TYPHIMURIUM, Strain/Indicator: TA104, Metabolic Activation: NONE, Method: PREINCUBATION).
Consider `O=[N+]([O-])c1cc2c([nH]c3ccccc32)c([N+](=O)[O-])c1O`, for which the mutagenic call (Test System: AMES SALMONELLA TYPHIMURIUM, Strain/Indicator: TA98(NR), Metabolic Activation: NONE, Method: STANDARD PLATE) is “active; positive”; the mutagenic call (Test System: AMES SALMONELLA TYPHIMURIUM, Strain/Indicator: TA98(NR), Metabolic Activation: RAT, LIVER, S-9, AROCLOR 1254, Method: STANDARD PLATE) was “active; positive”; the mutagenic call under setting [4] was “active; positive”; the mutagenic call (Test System: AMES SALMONELLA TYPHIMURIUM, Strain/Indicator: TA98, Metabolic Activation: RAT, LIVER, S-9, AROCLOR 1254, Method: STANDARD PLATE) was “active; positive”.
On to `OCC(CO)NC1CC(O)(CO)C(O)C(O)C1O` (centres undefined), for which the mutagenic call (Test System: AMES SALMONELLA TYPHIMURIUM, Strain/Indicator: TA98, Metabolic Activation: NONE) is “inactive; negative”; the mutagenic call (Test System: AMES SALMONELLA TYPHIMURIUM, Strain/Indicator: TA98, Metabolic Activation: RAT, LIVER, S-9, SODIUM PHENOBARBITAL AND 5,6-BENZOFLAVONE) is “inactive; negative”; the mutagenic call (Test System: AMES SALMONELLA TYPHIMURIUM, Strain/Indicator: TA100, Metabolic Activation: NONE) is “inactive; negative”; the mutagenic call (Test System: AMES SALMONELLA TYPHIMURIUM, Strain/Indicator: TA100, Metabolic Activation: RAT, LIVER, S-9, SODIUM PHENOBARBITAL AND 5,6-BENZOFLAVONE) was “inactive; negative”; the mutagenic call (Test System: AMES SALMONELLA TYPHIMURIUM, Strain/Indicator: TA1535, Metabolic Activation: NONE) was “inactive; negative”; the mutagenic call (Test System: AMES SALMONELLA TYPHIMURIUM, Strain/Indicator: TA1535, Metabolic Activation: RAT, LIVER, S-9, SODIUM PHENOBARBITAL AND 5,6-BENZOFLAVONE) is “inactive; negative”. Also, the mutagenic call runs as follows: (Test System: AMES SALMONELLA TYPHIMURIUM, Strain/Indicator: TA1537, Metabolic Activation: NONE) “inactive; negative”; (Test System: AMES SALMONELLA TYPHIMURIUM, Strain/Indicator: TA1537, Metabolic Activation: RAT, LIVER, S-9, SODIUM PHENOBARBITAL AND 5,6-BENZOFLAVONE) “inactive; negative”; (Test System: E. COLI, Strain/Indicator: WP2 UVRA, Metabolic Activation: NONE) “inactive; negative”; (Test System: E. COLI, Strain/Indicator: WP2 UVRA, Metabolic Activation: RAT, LIVER, S-9, SODIUM PHENOBARBITAL AND 5,6-BENZOFLAVONE) “inactive; negative”.
